Measured values reported in article PMC4112551 (Journal of biomolecular screening, 2012).

Molecular target: rhGCPII (extracellular part of human GCPII, amino acids 44–750) (Homo sapiens, UniProt Q04609)
Experiment: Fluorescence polarization
Assay type: binding

Sequence of rhGCPII (extracellular part of human GCPII, amino acids 44–750) (Q04609 44-750): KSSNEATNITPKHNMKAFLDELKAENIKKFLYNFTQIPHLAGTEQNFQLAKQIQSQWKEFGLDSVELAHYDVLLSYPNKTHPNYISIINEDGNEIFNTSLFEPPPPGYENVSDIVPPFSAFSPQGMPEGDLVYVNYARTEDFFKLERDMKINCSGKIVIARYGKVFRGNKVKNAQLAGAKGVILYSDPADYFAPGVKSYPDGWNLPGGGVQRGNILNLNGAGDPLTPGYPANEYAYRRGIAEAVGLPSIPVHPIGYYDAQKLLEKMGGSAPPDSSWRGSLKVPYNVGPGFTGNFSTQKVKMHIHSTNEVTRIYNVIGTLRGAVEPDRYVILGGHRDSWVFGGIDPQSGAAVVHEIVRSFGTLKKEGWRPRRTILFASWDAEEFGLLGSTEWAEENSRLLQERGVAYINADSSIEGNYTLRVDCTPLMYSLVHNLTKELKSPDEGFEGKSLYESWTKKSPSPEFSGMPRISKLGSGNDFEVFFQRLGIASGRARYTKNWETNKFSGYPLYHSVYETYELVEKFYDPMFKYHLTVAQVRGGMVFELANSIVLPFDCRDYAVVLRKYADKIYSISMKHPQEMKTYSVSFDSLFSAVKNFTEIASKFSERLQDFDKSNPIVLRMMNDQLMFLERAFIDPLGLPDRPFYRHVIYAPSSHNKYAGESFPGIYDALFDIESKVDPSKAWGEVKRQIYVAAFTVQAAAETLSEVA

Structure (SMILES): N[C@@H](CCC(=O)O)C(=O)O [glutamic acid]
- IC50: 870 µM

Structure (SMILES): N[C@@H](Cn1oc(=O)[nH]c1=O)C(=O)O [quisqualate]
- IC50: 16.7 µM
